Laboratory results published in US20260078120A1, “SUBSTITUTED PYRIDOPYRIMIDINONES” (MIRATI THERAPEUTICS, INC., priority 2022, published 2026).
Like-named read-outs stand apart in the source and are kept apart here.

How the values were obtained:
Type in all cases: cell-based
[1] = system: SKBR3 (PI3Kα wild type) cells; assay: CellTiter-Glo 2.0 luminescent cell viability assay, 72 hours, SKBR3 cells; settings: SKBR3 (PI3Kα wild type) cells, CellTiter-Glo, approximately 72 hours, read-out: SKBR3 (WT) Viability IC50
In short: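 Viability measured via CTG luminescence following roughly 72 hours of compound exposure at 37° C. Dosing used a 10 um starting concentration diluted 1:4 over 10 points; percent-of-vehicle data fitted with a variable-slope four-parameter model for IC50.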

[2] = system: T47D (PI3Kα H1047R mutant) cells; assay: Inhibition of pAKT formation, alphaLISA SureFire Ultra AKT 1/2/3 (pS473), T47D cells; settings: T47D (PI3Kα H1047R mutant) cells, inhibition of pAKT (pS473) formation, approximately one hour or 24 hours treatment, read-out: T47D pAKT (H1047R mutant) IC50
Experimental: The ability of a compound of Formula (I) to inhibit the formation of pAKT was measured using alphaLISA Surefire Ultra AKT 1/2/3 (pS473) Assay Kit (#ALSU-PAKT-B50K) was obtained from Perkin Elmer (Waltham, MA).
To prepare assay plates for pAKT alphaLISA assays, cells were trypsinized, resuspended in fresh media, and viable cells were counted utilizing trypan blue exclusion. Prior to seeding, cells were washed with PBS and resuspended in HBSS (Gibco, #14025092). T47D (12,000/w), SKBR3(12,000/w), or MKN1(24,000/w) cells were seeded at 12 μl per well in a solid white flat bottom 384 cell culture plate (Perkin Elmer #6007680).
Immediately after seeding, cells were dosed using an Echo Liquid Handler (Beckman Coulter) with compounds at a […] starting concentration and serially diluted (1:4) for a total of 10 concentrations. […] Cells were incubated with the compounds (solubilized in DMSO) for approximately one hour or 24 hours at 37° C. After one hour (or 24 hours) of treatment, cells were lysed with 3 μl of the 5× lysis buffer (provided and incubated at room temperature for 15 min on a microtiter plate shaker). Once cells were sufficiently lysed, 7.5 μl of the acceptor bead mix (made using the manufacturers recommended dilutions) was added to each well and left on the microtiter plate shaker for 1 min prior to incubating plates at room temperature for one hour, in the absence of light. After one hour of incubation with the acceptor bead mix, 7.5 μl of the donor bead mix (made using the manufacturers recommended dilutions) was added to each well and left on the microtiter plate shaker for 1 min prior to incubating plates at room temperature overnight in the absence of light. Plates were then imaged the following day using a CLARIOstar microplate reader (BMG Labtech, Germany).
Percent of control values were calculated by subtracting the average signal from the positive control (alpelisib) treated wells from all treated wells (including DMSO control wells) and then divided by the average signal from the vehicle DMSO treated control wells. Percent of vehicle control values were plotted as log (inhibitor) vs. response-Variable slope (four parameters) for curve fitting and IC50 values were determined using XLfit.
Key: N.D. =not determined
Inhibition of pAKT in T47D (PI3Kα H1047R mutant) cells by Exemplary Compounds of Formula (I)

[3] = system: T47D (PI3Kα H1047R mutant) cells; assay: CellTiter-Glo 2.0 luminescent cell viability assay, 72 hours, T47D cells; settings: T47D (PI3Kα H1047R mutant) cells, CellTiter-Glo, approximately 72 hours, read-out: T47D (H1047R mutant) Viability IC50
In short: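 Cells seeded at 1000 per well overnight were dosed with a 10-concentration, 1:4 series starting at 10 µM and incubated ~72 h at 37° C. Viability was read by CellTiter-Glo 2.0 luminescence after 30 min at room temperature. IC50 came from four-parameter fits of percent vehicle control.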

Row | Compound | IC50 [1] [nM] | IC50 ([2]; Homo sapiens, T47D) [nM] | IC50 [3] [nM] | IC50 ([1]; Homo sapiens, SK-BR-3, 72 h) [nM] | IC50 ([3]; Homo sapiens, T47D, 72 h) [nM] | IC50 [2] [nM]
1 | CCc1cc([C@@H](C)Nc2ccccc2C(=O)O)c2nc(N3Cc4ccccc4C3)c(C#N)c(=O)n2c1 [Example 10-10, (R)-2-((1-(3-cyano-7-ethyl-2-(isoindolin-2-yl)-4-oxo-4H-pyrido[1,2-a]pyrimidin-9-yl)ethyl)amino)benzoic acid] | 7450 | 1.21 | 29.3 | – | – | –
2 | Cc1cc([C@@H](C)Nc2ccc(C)nc2C(=O)O)c2nc(N3Cc4ccccc4C3)c(C#N)c(=O)n2c1 [Example 10-5, (R)-3-((1-(3-cyano-2-(isoindolin-2-yl)-7-methyl-4-oxo-4H-pyrido[1,2-a]pyrimidin-9-yl)ethyl)amino)-6-methylpicolinic acid] | – | 0.425 | – | 2190 | 13.6 | –
3 | Cc1cc([C@@H](C)Nc2ccccc2C(=O)O)c2nc(N3CC4CCC3CC4)c(C#N)c(=O)n2c1 [Example 10-97, (R)-2-((1-(2-(2-azabicyclo[2.2.2]octan-2-yl)-3-cyano-7-methyl-4-oxo-4H-pyrido[1,2-a]pyrimidin-9-yl)ethyl)amino)benzoic acid] | – | 2.04 | – | > 10000 | 85.2 | –
4 | Cc1cc([C@@H](C)Nc2ccccc2C(=O)O)c2nc(N3CCN(c4ccc(C#N)cc4)C[C@H]3C)c(C)c(=O)n2c1 [Example 10-42, 2-(((R)-1-(2-((R)-4-(4-cyanophenyl)-2-methylpiperazin-1-yl)-3,7-dimethyl-4-oxo-4H-pyrido[1,2-a]pyrimidin-9-yl)ethyl)amino)benzoic acid] | 9870 | – | 61.5 | – | – | 3.09
5 | Cc1cc([C@@H](C)Nc2ccccc2C(=O)O)c2nc(N(C)CC3CC3)c(C#N)c(=O)n2c1 [Example 10-80, (R)-2-((1-(3-cyano-2-((cyclopropylmethyl)(methyl)amin0)-7-methyl-4-oxo-4H-pyrido[1,2-a]pyrimidin-9-yl)ethyl)amino)benzoic acid] | – | 1.98 | – | > 10000 | 75 | –
6 | Cc1cc([C@@H](C)Nc2ccccc2C(=O)O)c2nc(N3CC4CC3C4)c(C#N)c(=O)n2c1 [Example 10-76, (R)-2-((1-(2-(2-azabicyclo[2.1.1]hexan-2-yl)-3-cyano-7-methyl-4-oxo-4H-pyrido[1,2-a]pyrimidin-9-yl)ethyl)amino)benzoic acid] | – | 1.7 | – | > 10000 | 109 | –
7 | Cc1cc([C@@H](C)Nc2ccccc2C(=O)O)c2nc(C3CCN(c4ccc(C#N)cc4)CC3)c(C)c(=O)n2c1 [Example 10-120, (R)-2-((1-(2-(1-(4-cyanophenyl)piperidin-4-yl)-3,7-dimethyl-4-oxo-4H-pyrido[1,2-a]pyrimidin-9-yl)ethyl)amino)benzoic acid] | – | 2.25 | – | > 10000 | 103 | –
8 | Cc1cc([C@@H](C)Nc2ccc(F)nc2C(=O)O)c2nc(N3Cc4ccccc4C3)c(C)c(=O)n2c1 [Example 10-29, (R)-6-fluoro-3-((1-(2-(isoindolin-2-yl)-3,7-dimethyl-4-oxo-4H-pyrido[1,2-a]pyrimidin-9-yl)ethyl)amino)picolinic acid] | > 10000 | 0.54 | 53.9 | – | – | –

Results, then the compound that gave them:

Row | IC50 [1] [nM] | IC50 ([2]; Homo sapiens, T47D) [nM] | IC50 [3] [nM] | IC50 ([1]; Homo sapiens, SK-BR-3, 72 h) [nM] | IC50 ([3]; Homo sapiens, T47D, 72 h) [nM] | IC50 [2] [nM] | Compound
9 | – | 3.77 | – | > 10000 | 80.3 | – | Cc1cc([C@@H](C)Nc2ccccc2C(=O)O)c2nc(N3CC4CC3C(F)(F)C4)c(C#N)c(=O)n2c1 (stereo partly drawn) [Example 10-88, 2-(((1R)-1-(3-cyano-2-(6,6-difluoro-2-azabicyclo[2.2.1]heptan-2-yl)-7-methyl-4-oxo-4H-pyrido[1,2-a]pyrimidin-9-yl)ethyl)amino)benzoic acid]
10 | – | 1.93 | – | > 10000 | 68 | – | Cc1cc([C@@H](C)Nc2ccccc2C(=O)O)c2nc(N3CC(F)(F)C(F)(F)C3)c(C)c(=O)n2c1 [Example 10-51, (R)-2-((1-(3,7-dimethyl-4-oxo-2-(3,3,4,4-tetrafluoropyrrolidin-1-yl)-4H-pyrido[1,2-a]pyrimidin-9-yl)ethyl)amino)benzoic acid]
11 | – | 1.58 | – | > 10000 | 100 | – | COC1CCN(c2nc3c([C@@H](C)Nc4ccccc4C(=O)O)cc(C)cn3c(=O)c2C)CC1(F)F (stereo partly drawn) [Example 10-116, 2-(((1R)-1-(2-(3,3-difluoro-4-methoxypiperidin-1-yl)-3,7-dimethyl-4-oxo-4H-pyrido[1,2-a]pyrimidin-9-yl)ethyl)amino)benzoic acid]
12 | – | 2.98 | – | > 10000 | 79 | – | Cc1cc([C@@H](C)Nc2ccccc2C(=O)O)c2nc(N3CCN(C(=O)C4CCCC4)CC3)c(C)c(=O)n2c1 [Example 10-84, (R)-2-((1-(2-(4-(cyclopentanecarbonyl)piperazin-1-yl)-3,7-dimethyl-4-oxo-4H-pyrido[1,2-a]pyrimidin-9-yl)ethyl)amino)benzoic acid]
13 | – | 0.905 | – | > 10000 | 84.4 | – | Cc1cc([C@@H](C)Nc2ccccc2C(=O)O)c2nc(N3CC[C@H]3C)c(C#N)c(=O)n2c1 (single isomer, unassigned) [Example 10-96]
14 | – | 1.38 | – | > 10000 | 56.6 | – | Cc1cc([C@@H](C)Nc2ccccc2C(=O)O)c2nc(N3CCN(c4ccccn4)CC3)c(C)c(=O)n2c1 [Example 10-34, (R)-2-((1-(3,7-dimethyl-4-oxo-2-(4-(pyridin-2-yl)piperazin-1-yl)-4H-pyrido[1,2-a]pyrimidin-9-yl)ethyl)amino)benzoic acid]
15 | – | 2.19 | – | > 10000 | 57.4 | – | Cc1cc([C@@H](C)Nc2ccccc2C(=O)O)c2nc(NC3CC(F)(F)C3)c(C#N)c(=O)n2c1 [Example 10-37, (R)-2-((1-(3-cyano-2-((3,3-difluorocyclobutyl)amino)-7-methyl-4-oxo-4H-pyrido[1,2-a]pyrimidin-9-yl)ethyl)amino)benzoic acid]
16 | – | 2.11 | – | > 10000 | 66.4 | – | Cc1cc([C@@H](C)Nc2ccccc2C(=O)O)c2nc(N(C)C3CC(F)(F)C3)c(C#N)c(=O)n2c1 [Example 10-49, (R)-2-((1-(3-cyano-2-((3,3-difluorocyclobutyl)(methyl)amino)-7-methyl-4-oxo-4H-pyrido[1,2-a]pyrimidin-9-yl)ethyl)amino)benzoic acid]
17 | – | 4.02 | – | > 10000 | 73.3 | – | Cc1cc([C@@H](C)Nc2ccccc2C(=O)O)c2nc(N3CCC(c4ccn(C)n4)CC3)c(C)c(=O)n2c1 [Example 10-58, (R)-2-((1-(3,7-dimethyl-2-(4-(1-methyl-1H-pyrazol-3-yl)piperidin-1-yl)-4-oxo-4H-pyrido[1,2-a]pyrimidin-9-yl)ethyl)amino)benzoic acid]
18 | – | 5.78 | – | > 10000 | 67.3 | – | Cc1cc([C@@H](C)Nc2ccccc2C(=O)O)c2nc(N3CCC(F)(F)[C@H]3C)c(C#N)c(=O)n2c1 [Example 10-32, 2-(((R)-1-(3-cyano-2-((R)-3,3-difluoro-2-methylpyrrolidin-1-yl)-7-methyl-4-oxo-4H-pyrido[1,2-a]pyrimidin-9-yl)ethyl)amino)benzoic acid]
19 | – | 4.35 | – | > 10000 | 77.2 | – | Cc1cc([C@@H](C)Nc2ccccc2C(=O)O)c2nc(N3CC[C@@H]3CF)c(C#N)c(=O)n2c1 (single isomer, unassigned) [Example 10-53]
20 | – | 6.39 | – | > 10000 | 55.1 | – | Cc1cc([C@@H](C)Nc2ccccc2C(=O)O)c2nc(N3CCC(F)(F)[C@@H]3C)c(C#N)c(=O)n2c1 [Example 10-31, 2-(((R)-1-(3-cyano-2-((S)-3,3-difluoro-2-methylpyrrolidin-1-yl)-7-methyl-4-oxo-4H-pyrido[1,2-a]pyrimidin-9-yl)ethyl)amino)benzoic acid]
